Measured values published in US11702635B2, “Hematopoietic stem cell expansion method” (PLASTICELL LIMITED, priority 2017, dated 2023).

Assays:
UCB CD133+ cells (HSPC) = experiment: Ex vivo expansion of umbilical cord blood CD133+ cells, flow cytometry and cell counting; type: cell-based, human; settings: for fold expansion of total nucleated cells (TNC) compared to cells grown in basal media / fold expansion of HSC (Lin-, CD38-, CD34+, CD45RA-, CD133+, CD90+, CD49f+) higher than basal media containing cytokines: 5 day culture; for fold expansion of total nucleated cells (TNC) compared to cells grown in basal media: HDAC inhibitor with cytokines, with or without WR1065 (100 μM), vs basal media containing cytokines; for fold expansion of HSC (Lin-, CD38-, CD34+, CD45RA-, CD133+, CD90+, CD49f+) higher than basal media containing cytokines: scriptaid 1 μM, WR1065 100 μM, FIG. 3; for fold expansion of HSC compared to cells grown in basal media: expansion protocol as defined above, HDAC inhibitor with or without WR1065
Description: Human UCB units were collected with written informed pre-consent and ethical approval from Oxford and Berkshire National Research Ethical Committees and studies conducted with approval of the NHSBT research committee. UCB mononuclear cells (MNC) were isolated by density gradient centrifugation on lymphocyte separation medium 1077 (PAA Laboratories, Pasching, Austria; density<1.077 g/ml). CD133+ cells were isolated from the MNC with immunomagnetic beads (Miltenyi Biotec, Germany). After isolation, the cells were cryopreserved in 10% DMSO in FCS (fetal calf serum) and stored at −150° C. in aliquots of 1×10^5 cells/vial. Cells were analysed for the purity of the isolation with flow cytometry on a BD LSR II (BD Biosciences, CA) using CD34-APC, CD133-PE and the appropriate isotype controls (all Miltenyi Biotec). Bone marrow derived CD133+ cells were obtained commercially from Lonza and peripheral blood CD133+ cells were isolated using immunomagnetic beads as above from total peripheral blood mononuclear cells obtained commercially from Lonza Biologics.
Vials from 2 or 3 donors were thawed and pooled in StemSpan ACF media (Stem Cell Technologies) containing 100 ng/mL SCF, 100 ng/mL FLT3LG and 20 ng/mL TPO (all from Miltenyi Biotec). After counting, cells were plated in 96 well round bottom suspension plates at 20,000 cells/well in the above media. Cells were allowed to recover overnight in these conditions in a 37° C. humidified incubator with 5% CO2.
The next day cells were harvested from the plates counted, and seeded into 24 well Nanex plates (Compass Biomedical) or standard tissue culture treated plates at 2500 cells/well in 1 mL basal media (StemSpan ACF with 100 ng/mL SCF, 100 ng/mL FLT3LG and 20 ng/mL TPO) containing an HDAC inhibitor (for most experiments scriptaid was used at a concentration of 1 μM). An aliquot of cells was used for CFU analysis and another for flow cytometry analysis.
After 3 days in culture the media was either replaced or supplemented with fresh media with the cytokines (SCF, TPO and FLT3LG) and the HDAC inhibitors (scriptaid 1 μM). Sixteen to twenty hours prior to harvest WR1065 was added at a concentration of 100 μM. After total of 5 days in expansion, cells are harvested, counted and analysed by flow cytometry.
Cells were harvested, washed and stained in 3% FBS in PBS using a panel of pre-conjugated antibodies. Cells were incubated with antibodies on ice for 30 min, then washed twice in 3% FBS in PBS and resuspended in 250 uL of above buffer before being analysed using a BD Canto II flow cytometer. [Antibody panel was as follows: 5 Lin custom cocktail (CD235a, CD4, CD10, CD11b and CD19) APC-Vio770, CD38-PE-Vio770, CD34-PerCP-Vio700, CD133-PE, CD45RA-VioBlue, CD49f-FITC, CD90-APC (all from Miltenyi Biotec).]
Cell number was measured using flow cytometry with the aid of counting beads (CountBright beads Life Technologies).

[1] = system: bone marrow derived CD34+ cells; settings: pre-treatment of cells in vitro; cited from earlier work
[2] = UCB cells from three separate donors and a pooled sample, FIG. 13

Row | Molecule | fold expansion of total nucleated cells (TNC) compared to cells grown in basal media (UCB CD133+ cells (HSPC)) | fold expansion of HSC compared to cells grown in basal media (UCB CD133+ cells (HSPC)) | also measured
1 | O=C(CCCCCN1C(=O)c2cccc3cccc(c23)C1=O)NO [scriptaid] | slightly reduced | – | fold expansion of HSC (Lin-, CD38-, CD34+, CD45RA-, CD133+, CD90+, CD49f+) higher than basal media containing cytokines (UCB CD133+ cells (HSPC)): approximately 10 fold; fold expansion of HSC compared to cells cultured in basal media, different culture plates (UCB CD133+ cells (HSPC); Nanex scaffolds, TC treated Corning 24 well plates or suspension Greiner Bio 24 well plates, effect similar across all surfaces, FIG. 14): significantly increased; fold expansion of HSC higher compared to basal media, average (UCB CD133+ cells (HSPC); [2]): 30 fold; fold expansion of HSC higher compared to basal media, range (UCB CD133+ cells (HSPC); [2]): 10-55 fold; proportion of CD133+/CD34+ cells compared to cells grown on cytokines alone (UCB CD133+ cells (HSPC); after 5 days in culture): increase
2 | NCCCNCCS [WR1065] | – | – | fold expansion of HSC (Lin-, CD38-, CD34+, CD45RA-, CD133+, CD90+, CD49f+) higher than basal media containing cytokines (UCB CD133+ cells (HSPC)): around 3 fold; enhancement of formation of CFU-GEMM and BFU-E colonies [1]: ≤ 38 fold
3 | sodium phenylbutyrate | increase | increased | –
4 | Nc1cc(F)ccc1NC(=O)/C=C/c1cnn(C/C=C/c2ccccc2)c1 [RGFP966] | increase | similar | –
5 | Cc1cc(C)cc(C(=O)NOCCCCCC(=O)NO)c1 [LMK235] | slightly lower | significantly increased | –
6 | Cn1cc(CNCC2CCN(c3ncc(C(=O)NO)cn3)CC2)c2ccccc21 [quisinostat] | slightly lower | significantly increased | –
7 | CN1CCc2c(c3ccccc3n2Cc2ccc(C(=O)NO)cc2)C1 [Tubastatin A] | similar | significantly increased | –
